According to patent US20220041647A1, “ESTRA-1,3,5(10)-TRIENE COMPOUNDS CONDENSED IN POSITION 16(17) WITH A PYRAZOLE RING AS INHIBITORS OF 17-HSD1” (FORENDO PHARMA LTD, priority 2018, published 2022):

Tests used:
[1] = system: HSD1 enzyme that is expressed in rabbit placenta tissue; assay: Inhibition of E1 to E2 conversion in rabbit placenta tissue homogenate; type: biochemical; conditions: compound 100 nM, 30 nM estrone, 1 mM β-NADPH, 30 min
In short: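 Rabbit placenta homogenate (20 mM KH2PO4, 1 mM EDTA, pH 7.4) incubated 30 min with 1 mM β-NADPH, 30 nM estrone plus 5 nM [3H]-estrone tracer, and inhibitor at 1 μM or 0.1 μM (1% DMSO). Stopped with TCA; estrone and estradiol resolved by HPLC with scintillation counting; % inhibition = 100 − % conversion relative to uninhibited control.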

[2] = biological target: T1, recombinant human 17β-HSD1 (Homo sapiens, UniProt P14061); assay: Inhibition of recombinant human 17β-HSD1 (estrone to estradiol conversion, HPLC/radioactivity); type: biochemical; conditions: compound 100 nM; 30 nM estrone, 1 mM NADPH, 30 min RT
T1 construct: made in house; host or cells: Sd9 (Sf9) insect cells, baculovirus (Bac to Bac Expression System)
T1 sequence (P14061 1-328): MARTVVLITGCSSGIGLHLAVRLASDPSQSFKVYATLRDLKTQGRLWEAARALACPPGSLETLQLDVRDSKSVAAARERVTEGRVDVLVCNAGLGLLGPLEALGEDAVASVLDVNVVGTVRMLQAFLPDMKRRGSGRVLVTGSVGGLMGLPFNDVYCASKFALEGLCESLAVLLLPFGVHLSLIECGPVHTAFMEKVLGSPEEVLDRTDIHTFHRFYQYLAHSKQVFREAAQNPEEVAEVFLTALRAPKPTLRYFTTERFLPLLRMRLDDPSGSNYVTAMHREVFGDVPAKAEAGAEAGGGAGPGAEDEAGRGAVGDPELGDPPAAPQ
In short: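 Microsomal human 17β-HSD1 from Sf9 baculovirus (1 μg/ml) was incubated 30 min at RT in 20 mM KH2PO4 pH 7.4 with 30 nM ^3H-estrone, 1 mM NADPH and inhibitor at 1 μM or 0.1 μM (1% DMSO). Estrone and estradiol were separated by HPLC with radioactivity detection. % inhibition = 100 − % conversion relative to uninhibited control.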

[3] = Metabolic stability assay, human hepatocyte incubations; type: in vitro ADME; conditions: compound 1 μM, human hepatocytes, 0-60 min at 37° C.; read-out: Human hepatocytes MetStab T½ min
In short: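 Compounds at 1 μM (1% DMSO final) incubated with human hepatocytes at 37 °C for 0, 10, 20, 40 and 60 min. Parent measured by LC-MS/MS as % remaining versus time zero; T1/2 obtained by regression of the disappearance curve.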

Compound	Rabbit placenta inhibition % @100 nM [1] [%]	inhibition at 0.1 µM [2] [%]	half-life at 1 μM [3] [min]
C[C@]12CCC3c4cccc(F)c4CCC3C1[C@H](CCC(=O)N1CCC3(CCOCC3)C1)c1c[nH]nc12 (stereo partly drawn) [Compound 219, 3-((8aS,12S)-3-fluoro-8a-methyl-1,2,6b,7,8,8a,10,12,12a,12b-decahydronaphtho[2′,1′:4,5]indeno[1,2-c]pyrazol-12-yl)-1-(8-oxa-2-azaspiro[4.5]decan-2-yl)propan-1-one]	14	91	7
CN(C)C(=O)CC[C@@H]1c2c[nH]nc2[C@@]2(C)CCC3c4cccc(F)c4CCC3C12 (stereo partly drawn) [Compound 222, 3-((8aS,12S)-3-fluoro-8a-methyl-1,2,6b,7,8,8a,10,12,12a,12b-decahydronaphtho[2′,1′:4,5]indeno[1,2-c]pyrazol-12-yl)-N,N-dimethylpropanamide]	11	91	12
C[C@]12CCC3c4cccc(F)c4CCC3C1[C@H](CCC(=O)Nc1ncccc1F)c1c[nH]nc12 (stereo partly drawn) [Compound 231, 3-((8aS,12S)-3-fluoro-8a-methyl-1,2,6b,7,8,8a,10,12,12a,12b-decahydronaphtho[2′,1′:4,5]indeno[1,2-c]pyrazol-12-yl)-N-(3-fluoropyridin-2-yl)propanamide]	35	86	29
